In patent publication US20260265771A1, “METHODS OF INCREASING THE REGENERATION EFFICIENCY IN PLANTS” (Institute of Genetics and Developmental Biology Chinese …, priority 2022, published 2026):
Values joined by “and” are separate entries in the source; they are usually repeats but may differ in a detail not shown here. Identical values can stand only once. “Also recorded” adds a separate entry of the source.

Key:
[1] = system: Williams 82 soybean cultivar; assay: Transformation efficiency of soybean (reporter gene A); type: cell-based
Protocol: By “transformation efficiency” is meant the capacity of an organism to take up and incorporate exogenous DNA such as plasmids during transformation. Transformation efficiency is calculated by dividing the number of transformants by the total number of organisms subjected to the transformation process and multiplying this by 100 to obtain a percentage.
The soybean gene A was transformed into the Williams 82 soybean cultivar and treated with 100 nM GmREF1 or a control. Gene A is a transcription factor gene which is used as a reporter for transformation efficiency. […]

[2] = system: soybean explants; assay: Shoot regeneration of soybean explants; type: cell-based, Glycine max
Protocol: The relative regeneration capacity was represented by the relative frequency of explants with the regenerated shoots. Data are mean±SD of three independent experiments. Bars show mean±SD. ***P<0.001, **P<0.01, *P<0.05 (Student's t-test).
Soybean explants were cultured on medium containing indicated concentrations of REF1. Shoot regeneration was scored 21 days after incubation.

[3] = system: recalcitrant soybean; assay: Regeneration frequency / transformation efficiency of recalcitrant soybean; type: cell-based; conditions: 100 nM GmREF1 vs control in absence of GmREF1
Protocol: (a) photos of control recalcitrant soybean and PRR+RER overexpressing (OE) recalcitrant soybean grown in the presence of 50 nM gmREF1, 100 nM GmREF1 or a vehicle only control (mock). (b) relative regeneration frequency of control recalcitrant soybean and PRR+RER overexpressing (OE) recalcitrant soybean grown in the presence of 50 nM GmREF1, 100 nM GmREF1 or a absence of REF1 (mock).

[4] = system: cucumber leaf explants; assay: Shoot regeneration of cucumber leaf explants; type: cell-based; conditions: 10 nM CsREF1 vs untreated control explants, 21 d
Protocol: FIG. 46—Leaf explants were cultured on medium containing indicated concentrations of CsREF1. Shoot regeneration was scored at 21 d after incubation. The shoot regenerative capacity was represented by the number of regenerated shoots per explant. Data are mean±SD of three independent experiments. Bars show mean±SD. ***P<0.001, **P<0.01, *P<0.05 (Student's t-test).
Leaf explants were cultured on a medium containing 10 nM CsREF1.

[5] = 100 nM GmREF1, three experiments

| Sequence | Regenerated shoots carrying the reporter gene [1, 5] | Transformation efficiency (%) [1, 5] | transformation efficiency ([1]; 100 nM GmREF1 vs control) | relative regeneration frequency, increase ([2]; 10 nM GmREF1 vs absence) | relative regeneration frequency, increase ([2]; 20 nM GmREF1 vs absence) | relative regeneration frequency, increase ([2]; 50 nM GmREF1 vs absence) | shoot regeneration / regenerative capacity ([2]; presence vs absence of GmREF1) | regeneration frequency, increase [3] | shoot regenerative capacity [4] |
| --- | --- | --- | --- | --- | --- | --- | --- | --- | --- |
| GSVVVLQTKRKHDGGKGRDPQTN (Glycine max) [GmREF1] | 177 and 156 and 200 | 64.1% and 73.9% and 72.9% | improves transformation efficiency; also recorded: greater | ~ 2.1 fold | ~ 2.8 fold | ~ 3.8 fold | increases the regenerative capacity; also recorded: promotes shoot regeneration | ~ 12 fold | – |
| YKLEGELQKRFEDLLKTTTDNDIPRGGNY (listed as Cucumis sativus) [CsREF1] | – | – | – | – | – | – | – | – | significantly increased |
